Laboratory results: US20240117385A1, “ENZYMES OF LUCIFERIN BIOSYNTHESIS AND USE THEREOF” (LIGHT BIO, INC., priority 2018, published 2024)

Legend:
[1] = test system: hispidin hydroxylase and luciferase fusion protein; test: Bioluminescence of HEK293T cells expressing hispidin hydroxylase and luciferase fusion protein; format: cell-based, Neonothopanus nambi; details: 24 hours after transfection, 1 million of cells in 0.5 ml PBS; hispidin 10 μg per 1 million of cells
Description: Humanized DNA sequences coding hispidin-hydroxylase and luciferase of Neonothopanus nambi, obtained according to Example 2, were operatively cross-linked to each other by flexible short peptide linker with amino acid sequence GGSGGSGGS (SEQ ID NOs:115). Nucleotide and amino acid sequences of the obtained fused protein are shown in SEQ ID NO 101 and 102. Nucleic acid coding fused protein was cloned into pEGFP-N1 vector (Clontech, USA) instead of EGFP gene under Cytomegaloviral promoter control. The obtained structure was transfected into HEK293T cells. Analogous vectors, comprising individual genes of hispidin hydroxylase and luciferase, were also co-transfected. Transfection was performed by transfection agent FuGENE HD (Promega, USA) according to the manufacturer's protocol. 24 hours after transfection 1 million of cells were resuspended in 0.5 ml of PBS, and luminescence without adding hispidin and with addition of hispidin (10 μg per 1 million of cells) was recorded by luminometer.

[2] = test system: Neonothopanus nambi luciferase; test: Bioluminescence reaction of biosynthetic 3-hydroxyhispidin; format: biochemical; details: 3-hydroxyhispidin purified from fermenter medium by HPLC
Description: Expression cassette, comprising nucleic acid coding Neonothopanus nambi hispidin hydroxylase (SEQ ID NOs 1, 2) under control of J23100 promoter, was obtained synthetically and cloned into bacterial expression vector comprising spectinomycin resistance gene. The obtained vector was transformed into E. coli cells expressing Neonothopanus nambi hispidin-synthase, Zeocin resistance gene and NpgA gene, obtained according to Example 12. The obtained bacteria were used for producing 3-hydroxyhispidin by fermentation according to the protocol described in Example 12, however with adding of spectinomycin at concentration of […] in all media used for cultivation. After 48 hours of cultivation the 3-hydroxyhispidin concentration in the medium was 2.3 g/l.

[3] = test system: Autonomously bioluminescent transgenic plants Nicotiana benthamiana; test: Effect of external adding caffeic acid on transgenic plant bioluminescence; format: in vivo; details: 0.4-6.4 g/l, two hours of incubation
Protocol: Autonomously bioluminescent transgenic plants Nicotiana benthamiana, obtained according to Example 16, were transferred to soil and cultured within eight weeks. Then, plant stem was cut and placed in water for two hours, after that, bioluminescence intensity was measured by IVIS Spectrum In Vivo Imaging System (Perkin Elmer). Then, plants were transferred to one of five water solutions at caffeic acid concentration of 0.4 g/l, 0.8 g/l, 1.6 g/l, 3.2 g/l, or 6.4 g/l, and control plants were placed in water. After two more hours of incubation in the caffeic acid solution or in water bioluminescence intensity was measured again.

[4] = test system: hispidin-synthase of Neonothopanus nambi; test: Determination of hispidin synthase functionality; format: biochemical; details: 20 μM caffeic acid
Description: (§1) Polyhistidine (H is tag) coding sequence was operatively attach ed to 5′-ends of nucleic acids coding hispidin-synthase and caffeylpyruvate hydrolase of Neonothopanus nambi, obtained according to Example 9, and the obtained structures were cloned into pET-23 vector by means of restriction endonucleases NotI and SacI. The vectors were used for transformation of Escherichia coli cells of BL21-DE3-codon+ strain, performed by electroporation. The transformed cells were dispersed in Petri dishes with LB medium, comprising 1.5% of agar, 100 μg/ml of ampicillin, and incubated overnight at 37° C. […]
(§2) For determination of hispidin synthase functionality 30 μl of isolated recombinant protein solution were put into a glass tube, comprising 100 μl of the buffer (0.2 M of Na-phosphate buffer, 0.5 M of Na2SO4, 0.1% dodecylmaltoside (DDM) pH 8.0, all components—Sigma-Aldrich, USA), 0.5 μl of purified recombinant luciferase of Neonothopanus nambi, obtained according to Example 4, 1 mM of NADPH (Sigma-Aldrich, USA), 15 μl of purified recombinant hispidin hydroxylase of Neonothopanus nambi, obtained according to Example 4, 10 mM of ATP (ThermoFisher Scientific, USA), 1 mM of CoA (Sigma-Aldrich, USA), 1 mM of malonyl-CoA (Sigma-Aldrich, USA). […] Maximum emission of the emitted luminescence was 520-535 nm.

[5] = test system: caffeylpyruvate hydrolase of Neonothopanus nambi; test: Determination of caffeylpyruvate hydrolase functionality; format: biochemical; details: 25 μM caffeoyl pyruvate
Description: as §1
For determination of caffeylpyruvate hydrolase functionality 10 μl of isolated recombinant protein solution were put into a glass tube, comprising 100 μl of the buffer (0.2 M of Na-phosphate buffer, 0.5 M of Na2SO4, 0.1% dodecylmaltoside (DDM) pH 8.0, 0.5 μl of luciferase of Neonothopanus nambi, 1 mM of NADPH (Sigma-Aldrich, USA), 15 μl of hispidin hydroxylase 10 mM of ATP (ThermoFisher Scientific, USA), 1 mM of CoA (Sigma-Aldrich, USA), 1 mM of malonyl-CoA (Sigma-Aldrich, USA), 30 μl of purified recombinant hispidin synthase. The glass tube was placed into a luminometer GloMax 20/20 (Promega, USA). […] Maximum emission of the emitted luminescence was 520-535 nm.

[6] = test system: PKS from Hydrangea macrophylla; test: Functionality of recombinant PKS; format: biochemical; details: 20 μM caffeyl-CoA
Protocol: as §2, with “Nucleic acid coding PKS from Hydrangea macrophylla (SEQ ID NOs: 124, 125) was used for producing recombinant protein according to the technique described in Example 4. Presence” for “For determination”, “the expected recombinant product was confirmed by electrophoresis as bands of the expected length were available. Aliquots of the isolated recombinant protein were used for verifying” for “hispidin synthase”, “functionality of:” for “functionality”, “USA). The glass tube was placed into a luminometer GloMax 20/20 (Promega, USA).” for “USA).”

[7] = test system: Arabidopsis thaliana; test: Caffeylpyruvate hydrolase effect on luminescence of autonomously bioluminescent plants; format: in vivo; details: on average
Description: For the purpose of study of caffeylpyruvate hydrolase effect on luminescence of autonomously bioluminescent organisms there was used a binary vector for agrobacterium transformation comprising coding sequences of Neonothopanus nambi luciferase, Neonothopanus nambi hispidin hydroxylase, Neonothopanus nambi hispidin synthase, Neonothopanus nambi caffeylpyruvate hydrolase and kanamycin resistance gene, and each gene is under control of 35S promoter from cauliflower mosaic virus, obtained according to Example 16, and control vector characterized in that caffeylpyruvate hydrolase sequence was removed from it. The vectors were used for transformation of Arabidopsis thaliana in the same conditions according to the protocol described in Example 16. Bioluminescence was visualized by means of IVIS Spectrum In Vivo Imaging System (Perkin Elmer). […] The data provided indicate that expression of caffeylpyruvate hydrolase enables to increase bioluminescent cascade efficiency, that results in increasing the intensity of luminescence emitted by plants.

Molecule: O=c1oc(/C=C/c2ccc(O)c(O)c2)cc(O)c1O [3-hydroxy hispidin, (E)-6-(3,4-dihydroxystyryl)-3,4-dihydroxy-2H-pyran-2-one]
- cell luminescence on addition [1]: caused bioluminescent signal
- activity in bioluminescence reaction [2]: active in bioluminescence reaction

Molecule: O=C(O)/C=C/c1ccc(O)c(O)c1 [caffeic acid]
- change of bioluminescence intensity vs before placing in caffeic acid solution [3]: increased
- bioluminescence of reaction mixture [4]: demonstrated bioluminescence

Molecule: O=C(/C=C/c1ccc(O)c(O)c1)/C=C(/O)C(=O)O [caffeoyl pyruvate, (2E,5E)-6-(3,4-dihydroxyphenyl)-2-hydroxy-4-oxohexa-2,5-diene acid]
- Bioluminescence of the reaction mixture [5]: Bioluminescence of the reaction mixture was detected

Molecule: CC(C)(COP(=O)(O)OP(=O)(O)OC[C@H]1O[C@@H](n2cnc3c(N)ncnc32)[C@H](O)[C@@H]1OP(=O)(O)O)[C@@H](O)C(=O)NCCC(=O)NCCSC(=O)/C=C/c1ccc(O)c(O)c1 [caffeyl-CoA]
- bioluminescence of reaction mixtures [6]: demonstrated bioluminescence

B1: Neonothopanus nambi caffeylpyruvate hydrolase: enzyme converting caffeylpyruvate to caffeic acid, expressed in transgenic plants (protein, listed as Neonothopanus nambi)
chain: MAPISSTWSRLIRFVAIETSLVHIGEPIDATMDVGLARREGKTIQAYEIIGSGSALDLSAQVSKNVLTVRELLMPLSREEIKTVRCLGLNYPVHATEANVAVPKFPNLFYKPVTSLIGPDGLITIPSVVQPPKEHQSDYEAELVIVIGKAAKNVSEDEALDYVLGYTAANDISFRKHQLAVSQWSFSKGFGSLLLTIRMAQTHSGNINRFSRDQIFNVKKTISFLSQGTTLEPGSIILTGTPDGVGFVRNPPLYLKDGDEVMTWIGSGIGTLANTVQEEKTCFASGGHE
- brightness of bioluminescence vs plants expressing only luciferase, hispidin hydroxylase and hispidin synthase [7]: 8.3 times
